EC50 data for 25 compounds are collected here from patent US20250368625A1, “PIPERAZINES” (Grünenthal GmbH, priority 2024, published 2025).

The experiment deals with T1, human SSTR4 (Homo sapiens, UniProt P31391).
T1 construct: expressed in transfected cells; host or cells: CHO-K1
T1 sequence (P31391 whole entry): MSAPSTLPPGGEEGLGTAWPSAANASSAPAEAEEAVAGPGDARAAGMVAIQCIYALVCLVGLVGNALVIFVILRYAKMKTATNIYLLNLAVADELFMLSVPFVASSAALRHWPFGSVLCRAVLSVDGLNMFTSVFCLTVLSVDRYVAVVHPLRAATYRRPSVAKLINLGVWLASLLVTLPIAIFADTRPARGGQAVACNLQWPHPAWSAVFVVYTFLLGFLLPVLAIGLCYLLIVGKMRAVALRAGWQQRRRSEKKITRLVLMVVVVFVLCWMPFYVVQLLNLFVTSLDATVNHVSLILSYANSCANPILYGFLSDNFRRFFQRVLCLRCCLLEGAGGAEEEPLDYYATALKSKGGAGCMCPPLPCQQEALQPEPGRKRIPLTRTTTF
Description: hSSTR4 cAMP assay (cAMP accumulation, LANCE Ultra cAMP kit, CHO-K1 human SSTR4 Gi cell line). The format is cell-based. The note with it: functional agonism, forskolin 10 μM stimulated CHO-K1 human SSTR4 Gi cells, 30 min at 25° C., at least duplicate, averaged; read-out: hSSTR4 EC50. In outline:
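CHO-K1 cells expressing human SSTR4 (Gi), pre-cultured 18-20 h or thawed and used directly, stimulated with 10 μM forskolin plus test agonist in concentration series, 30 min at 25° C. Lysate cAMP read by TR-FRET (Eu-cAMP tracer/ULight-anti-cAMP, 1 h, 25° C). Normalized to forskolin-only and forskolin+100 nM SST14 controls, 4-parameter fit; ≥duplicate, averaged.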
A general note: Cyclic AMP is a second messenger, typically raised through Gs and lowered through Gi signalling.
For `Cc1cccn2c(C(C)(C)NC(=O)C3CNCCN3Cc3cccnn3)ncc12` (racemic) [SC-004, rac-N-(2-(8-methylimidazo[1,5-a]pyridin-3-yl)propan-2-yl)-1-(pyridazin-3-ylmethyl)piperazine-2-carboxamide], the EC50 (commonly the concentration that produces a half-maximal response) stood at 7.4 nM.
As for `Cc1cccn2c(C(C)(C)NC(=O)[C@@H]3CN(Cc4ccn(C(C)C)n4)CCN3)ncc12` [SC-073, (S)-4-((1-isopropyl-1H-pyrazol-3-yl)methyl)-N-(2-(8-methylimidazo[1,5-a]pyridin-3-yl)propan-2-yl)piperazine-2-carboxamide], the figure is 4800 nM; as for `Cc1cccc2c(C(C)(C)NC(=O)[C@@H]3CNCCN3C)n[nH]c12` [SC-094, (S)-1-methyl-N-(2-(7-methyl-1H-indazol-3-yl)propan-2-yl)piperazine-2-carboxamide], 0.21 nM.
Then `Cc1cccc2c(C(C)(C)NC(=O)[C@@H]3CN(C)CCN3)n[nH]c12` [SC-095, (S)-4-methyl-N-(2-(7-methyl-1H-indazol-3-yl)propan-2-yl)piperazine-2-carboxamide], with 2.9 nM; and `Cc1cccn2c(C(C)(C)NC(=O)[C@@H]3CNCCN3Cc3cnn(C)c3)ncc12` [SC-090, (S)-1-((1-methyl-1H-pyrazol-4-yl)methyl)-N-(2-(8-methylimidazo[1,5-a]pyridin-3-yl)propan-2-yl)piperazine-2-carboxamide], with 1.8 nM.
Regarding `Cc1cccc2c(C(C)(C)NC(=O)[C@@H]3CNCCN3CC3CCOCC3)n[nH]c12` [SC-096, (S)-N-(2-(7-methyl-1H-indazol-3-yl)propan-2-yl)-1-((tetrahydro-2H-pyran-4-yl)methyl)piperazine-2-carboxamide], the EC50 came to 0.46 nM.
As for `Cc1cccn2c(C(C)(C)NC(=O)[C@@H]3CNCCN3CC(C)(C)O)ncc12` [SC-023, (S)-1-(2-hydroxy-2-methylpropyl)-N-(2-(8-methylimidazo[1,5-a]pyridin-3-yl)propan-2-yl)piperazine-2-carboxamide], the figure is 9 nM; as for `CC(C)(NC(=O)[C@@H]1CNCCN1CC1CC(F)(F)C1)c1ncc2c(Cl)cccn12` [SC-107, (S)-N-(2-(8-chloroimidazo[1,5-a]pyridin-3-yl)propan-2-yl)-1-((3,3-difluorocyclobutyl)methyl)piperazine-2-carboxamide], 0.76 nM.
`Cc1cccn2c(C(C)(C)NC(=O)[C@@H]3CNCCN3C(C)C)ncc12` (racemic) [SC-002, rac-1-isopropyl-N-(2-(8-methylimidazo[1,5-a]pyridin-3-yl)propan-2-yl)piperazine-2-carboxamide]: the EC50 amounted to 1.1 nM.
As for `CN1CCN[C@H](C(=O)NC(C)(C)c2ncc3c(C(F)(F)F)cccn23)C1` [SC-112, (S)-4-methyl-N-(2-(8-(trifluoromethyl)imidazo[1,5-a]pyridin-3-yl)propan-2-yl)piperazine-2-carboxamide], the figure is 490 nM.
`Cc1cccn2c(C(C)(C)NC(=O)[C@@H]3CN(CC(F)F)CCN3)ncc12` [SC-050, (S)-4-(2,2-difluoroethyl)-N-(2-(8-methylimidazo[1,5-a]pyridin-3-yl)propan-2-yl)piperazine-2-carboxamide]: the EC50 stood at 8200 nM.
As for `CCN1CCN[C@H](C(=O)NC(C)(C)c2ncc3c(C)cccn23)C1` [SC-054, (S)-4-ethyl-N-(2-(8-methylimidazo[1,5-a]pyridin-3-yl)propan-2-yl)piperazine-2-carboxamide], the figure is 17 nM.
Then `CN1CCN[C@H](C(=O)NC(C)(C)c2ncc3c(Cl)cccn23)C1` [SC-105, (S)-N-(2-(8-chloroimidazo[1,5-a]pyridin-3-yl)propan-2-yl)-4-methylpiperazine-2-carboxamide], with 31 nM.
As for `Cc1cccn2c(C(C)(C)NC(=O)[C@@H]3CNCCN3C3CCC(F)(F)CC3)ncc12` [SC-032, (S)-1-(4,4-difluorocyclohexyl)-N-(2-(8-methylimidazo[1,5-a]pyridin-3-yl)propan-2-yl)piperazine-2-carboxamide], the figure is 0.23 nM; as for `Cc1cccn2c(C(C)(C)NC(=O)[C@@H]3CN(CC(F)(F)F)CCN3)ncc12` [SC-049, (S)-N-(2-(8-methylimidazo[1,5-a]pyridin-3-yl)propan-2-yl)-4-(2,2,2-trifluoroethyl)piperazine-2-carboxamide], 3300 nM; as for `Cc1cccn2c(C(C)(C)NC(=O)[C@@H]3CNCCN3C)ncc12` [SC-016, (S)-1-methyl-N-(2-(8-methylimidazo[1,5-a]pyridin-3-yl)propan-2-yl)piperazine-2-carboxamide], 0.44 nM.
Take `Cc1cccn2c(C(C)(C)NC(=O)[C@@H]3CN(CC4CCOCC4)CCN3)ncc12` [SC-057, (S)-N-(2-(8-methylimidazo[1,5-a]pyridin-3-yl)propan-2-yl)-4-((tetrahydro-2H-pyran-4-yl)methyl)piperazine-2-carboxamide]: the EC50 was 20 nM.
For the compound `Cc1cccn2c(C(C)(C)NC(=O)[C@@H]3CN(Cc4ncco4)CCN3)ncc12` [SC-065, (S)-N-(2-(8-methylimidazo[1,5-a]pyridin-3-yl)propan-2-yl)-4-(oxazol-2-ylmethyl)piperazine-2-carboxamide], the EC50 stood at 1300 nM.
For `Cn1cc(CN2CCNC[C@H]2C(=O)NC(C)(C)c2ncc3c(C4CC4)cccn23)cn1` [SC-120, (S)-N-(2-(8-cyclopropylimidazo[1,5-a]pyridin-3-yl)propan-2-yl)-1-((1-methyl-1H-pyrazol-4-yl)methyl)piperazine-2-carboxamide], the EC50 turned out to be 53 nM.
Take `Cc1cccn2c(C(C)(C)NC(=O)[C@@H]3CN(C)CCN3CC3COC3)ncc12` [SC-048, (S)-4-methyl-N-(2-(8-methylimidazo[1,5-a]pyridin-3-yl)propan-2-yl)-1-(oxetan-3-ylmethyl)piperazine-2-carboxamide]: the EC50 turned out to be 9.2 nM.
`Cc1cccn2c(C(C)(C)NC(=O)[C@@H]3CN(CC4CCC(F)(F)CC4)CCN3)ncc12` [SC-067, (S)-4-((4,4-difluorocyclohexyl)methyl)-N-(2-(8-methylimidazo[1,5-a]pyridin-3-yl)propan-2-yl)piperazine-2-carboxamide]: the concentration giving a half-maximal response (EC50) was determined as 2400 nM.
For `Cc1cccn2c(C(C)(C)NC(=O)[C@@H]3CN(C)CCN3Cc3cnn(C)c3)ncc12` [SC-044, (S)-4-methyl-1-((1-methyl-1H-pyrazol-4-yl)methyl)-N-(2-(8-methylimidazo[1,5-a]pyridin-3-yl)propan-2-yl)piperazine-2-carboxamide], the EC50 came to 6.1 nM.
Consider `Cc1cccn2c(C(C)(C)NC(=O)[C@@H]3CN(C4CCC4)CCN3)ncc12` [SC-053, (S)-4-cyclobutyl-N-(2-(8-methylimidazo[1,5-a]pyridin-3-yl)propan-2-yl)piperazine-2-carboxamide], for which the EC50 worked out at 520 nM.
Regarding `Cc1cccc2c(C(C)(C)NC(=O)[C@@H]3CNCCN3CC3COC3)n[nH]c12` [SC-122, (S)—N-(2-(7-methyl-1H-indazol-3-yl)propan-2-yl)-1-(oxetan-3-ylmethyl)piperazine-2-carboxamide], the concentration giving a half-maximal response (EC50) came to 1.2 nM.
For `Cc1cccn2c(C(C)(C)NC(=O)[C@@H]3CNCCN3Cc3ccccc3)ncc12` [SC-085, (S)-1-benzyl-N-(2-(8-methylimidazo[1,5-a]pyridin-3-yl)propan-2-yl)piperazine-2-carboxamide], the EC50 stood at 0.11 nM.
